The values below come from ChEMBL document CHEMBL3751732 (Bioorg Med Chem Lett, 2016).

Each structure is given as a SMILES string. Activity calls are given as the source filed them. No cut-off for these calls is given here.

One assay concerns the target Histamine H1 receptor (Homo sapiens, UniProt P35367). The assay is described as follows: Displacement of [3H]mepyramine from human histamine 1 receptor expressed in Sf9 cell membranes by liquid scintillation counting. In general terms: In a radioligand displacement assay an active substance lowers the binding of a labelled ligand.
Assay [1] deals with T1, Histamine H4 receptor (Homo sapiens, UniProt Q9H3N8). The assay is described as follows: Displacement of [3H]histamine from human histamine 4 receptor expressed in Sf9 cell membranes by liquid scintillation counting.
T1 sequence (Q9H3N8 whole entry): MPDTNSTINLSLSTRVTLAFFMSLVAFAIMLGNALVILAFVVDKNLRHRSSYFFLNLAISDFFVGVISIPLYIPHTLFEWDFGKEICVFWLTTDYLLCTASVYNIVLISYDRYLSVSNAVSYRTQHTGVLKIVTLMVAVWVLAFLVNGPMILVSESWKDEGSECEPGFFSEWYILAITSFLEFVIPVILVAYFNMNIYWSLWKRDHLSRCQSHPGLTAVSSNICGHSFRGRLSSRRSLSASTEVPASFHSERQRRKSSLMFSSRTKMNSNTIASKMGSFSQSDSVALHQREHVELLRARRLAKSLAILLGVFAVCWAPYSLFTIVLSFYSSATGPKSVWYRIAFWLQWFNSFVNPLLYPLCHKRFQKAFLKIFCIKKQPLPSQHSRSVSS
For the next assay, the target named is Histamine H3 receptor (Homo sapiens, UniProt Q9Y5N1). Description: Displacement of [3H]Nalpha-methylhistamine from human histamine 3 receptor expressed in Sf9 cell membranes by liquid scintillation counting.
Sequence of Histamine H3 receptor (Q9Y5N1 whole entry): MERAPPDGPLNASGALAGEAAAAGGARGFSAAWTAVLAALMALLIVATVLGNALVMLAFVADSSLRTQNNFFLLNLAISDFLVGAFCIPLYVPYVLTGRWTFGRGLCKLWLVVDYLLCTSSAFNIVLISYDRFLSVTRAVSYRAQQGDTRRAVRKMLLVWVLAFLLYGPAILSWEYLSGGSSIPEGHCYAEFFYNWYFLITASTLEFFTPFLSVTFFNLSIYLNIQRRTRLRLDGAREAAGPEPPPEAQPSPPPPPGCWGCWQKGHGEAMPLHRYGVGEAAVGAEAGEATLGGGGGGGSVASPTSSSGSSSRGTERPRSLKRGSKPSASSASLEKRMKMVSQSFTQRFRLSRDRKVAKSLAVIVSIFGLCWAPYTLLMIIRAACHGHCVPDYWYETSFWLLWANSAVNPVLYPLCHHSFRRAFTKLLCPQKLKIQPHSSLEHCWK
Assay [2] addresses T1, Histamine H4 receptor. The assay is described as follows: Antagonist activity at human histamine 4 receptor expressed in Sf9 cell membranes co-expressing Galphai2 and Gbeta1gamma2 assessed as [35S]GTPgammaS binding by scintillation counting. In kind it is functional. Background: Binding of GTPγS marks nucleotide exchange on a G protein.
The target of assay [3] is T1, Histamine H4 receptor. Description: Antagonist activity at human histamine 4 receptor expressed in Sf9 cell membranes co-expressing Galphai2 and Gbeta1gamma2 assessed as [35S]GTPgammaS binding by scintillation counting relative to control histamine. In kind it is functional.
The target in the next assay is Histamine H2 receptor (Homo sapiens, UniProt P25021). Description: Displacement of [3H]UR-DE257 from human histamine 2 receptor expressed in Sf9 cell membranes by liquid scintillation counting.
Sequence of Histamine H2 receptor (P25021 whole entry): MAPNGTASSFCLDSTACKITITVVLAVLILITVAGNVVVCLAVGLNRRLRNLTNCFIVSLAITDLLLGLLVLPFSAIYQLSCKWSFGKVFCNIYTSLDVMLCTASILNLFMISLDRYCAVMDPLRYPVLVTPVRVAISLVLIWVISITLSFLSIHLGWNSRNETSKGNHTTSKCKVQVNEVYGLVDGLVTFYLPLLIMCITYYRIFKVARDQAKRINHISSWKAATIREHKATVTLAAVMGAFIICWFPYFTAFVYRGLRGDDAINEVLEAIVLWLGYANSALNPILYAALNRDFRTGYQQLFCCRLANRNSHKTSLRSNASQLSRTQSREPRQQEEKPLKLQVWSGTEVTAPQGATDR

Sequence of Histamine H1 receptor (P35367 whole entry): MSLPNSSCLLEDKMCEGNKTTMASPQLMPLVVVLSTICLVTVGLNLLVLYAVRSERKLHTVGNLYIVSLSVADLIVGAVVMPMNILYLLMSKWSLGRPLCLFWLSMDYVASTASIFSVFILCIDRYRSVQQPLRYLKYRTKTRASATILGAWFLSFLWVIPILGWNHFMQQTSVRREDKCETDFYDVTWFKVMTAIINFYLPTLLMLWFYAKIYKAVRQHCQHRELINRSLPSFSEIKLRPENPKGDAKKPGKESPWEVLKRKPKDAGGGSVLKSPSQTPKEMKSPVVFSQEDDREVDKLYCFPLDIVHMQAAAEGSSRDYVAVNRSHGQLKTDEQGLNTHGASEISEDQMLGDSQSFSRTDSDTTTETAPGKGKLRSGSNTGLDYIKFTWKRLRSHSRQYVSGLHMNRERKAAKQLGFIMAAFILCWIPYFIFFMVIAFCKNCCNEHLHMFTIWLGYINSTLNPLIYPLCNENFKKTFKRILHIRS

`COc1ccc(CNc2cc(-c3ccccc3)nc(N3CCN(C)CC3)n2)cc1`: the Ki at Histamine H1 receptor is 4.17 µM; at Histamine H4 receptor [1] it was 72.4 µM.

Turning to `COc1ccc(CNc2nc3c(c(N4CCN(C)CC4)n2)-c2ccccc2CC3)cc1`, the figures for the Ki at Histamine H1 receptor and at Histamine H4 receptor [1] were 1.07 µM and 13.8 µM, respectively.

As for `CN1CCN(c2nc(N)nc3c2CCc2ccccc2-3)CC1`, the Ki is 9.77 µM on Histamine H3 receptor, 9.12 µM at Histamine H1 receptor, 0.186 µM on Histamine H4 receptor [1] and 31.6 µM on Histamine H2 receptor. Further, at Histamine H4 receptor [2], the EC50 is 0.295 µM. Further, the Ratio on Histamine H4 receptor [3] was -0.47.

`CN1CCN(c2nc3c(c(N4CCN(C)CC4)n2)-c2ccccc2CC3)CC1`: the values for the inhibition constant Ki at Histamine H1 receptor and at Histamine H4 receptor [1] were 1.17 µM and 7.76 µM, respectively.

For `CN1CCN(c2nc(NCc3cccs3)c3cc(Cl)ccc3n2)CC1`, the inhibition constant Ki on Histamine H1 receptor is 0.55 µM.

For the compound `COc1ccc(CNc2cc(-c3ccccc3)nc(N(C)C)n2)cc1`, the pKi entry at Histamine H1 receptor and on Histamine H4 receptor [1] was “inactive” throughout.

`CN1CCN(c2nc(NCCc3ccccc3)nc3c2-c2ccccc2CC3)CC1`: the Ki was 1.86 µM at Histamine H1 receptor and 6.76 µM at Histamine H4 receptor [1].

On to `COc1ccc(CNc2nc3c(c(N4CCN(C)CC4)n2)CCc2ccccc2-3)cc1`, for which the Ki on Histamine H1 receptor was 5.75 µM; on Histamine H4 receptor [1], 4.27 µM.

In the case of `CN1CCN(c2nc(NCCc3ccccc3)cc(-c3ccccc3)n2)CC1`, the inhibition constant Ki was 1.95 µM at Histamine H1 receptor and 36.3 µM at Histamine H4 receptor [1].

With `CN1CCN(c2cc(-c3ccccc3)nc(NCCc3ccccc3)n2)CC1`, the Ki at Histamine H1 receptor is 3.31 µM; at Histamine H4 receptor [1], 9.77 µM.

For `CN1CCN(C2=Nc3ccc(Cl)cc3Oc3ccccc32)CC1`, the affinity at Histamine H1 receptor corresponds to a Ki of 0.00832 µM.

On to `CN1CCN(c2nc(NCc3ccccc3)nc3c2-c2ccccc2CC3)CC1`, for which the values for the inhibition constant (Ki) at Histamine H1 receptor and at Histamine H4 receptor [1] were 1.91 µM and 26.3 µM, respectively.

For `Cc1ccc(CNc2nc3c(c(N4CCN(C)CC4)n2)CCc2ccccc2-3)cc1`, the Ki on Histamine H1 receptor is 3.39 µM; on Histamine H4 receptor [1] it was 20 µM.

On to `CN1CCN(c2cc(-c3ccccc3)nc(NCc3ccccc3)n2)CC1`, for which the Ki at Histamine H3 receptor was 2.51 µM; on Histamine H1 receptor, 1.12 µM; on Histamine H4 receptor [1], 0.955 µM; on Histamine H2 receptor it was 10.2 µM. Moreover, the concentration giving a half-maximal response (EC50) on Histamine H4 receptor [2] was 0.912 µM. Besides, the Ratio on Histamine H4 receptor [3] was -1.27.

On to `CN1CCN(c2nc(NCCc3ccccc3)nc3c2CCc2ccccc2-3)CC1`, for which the Ki on Histamine H1 receptor was 9.33 µM; at Histamine H4 receptor [1], 9.12 µM.

As for `CN(C)c1nc(NCCc2ccccc2)cc(-c2ccccc2)n1`, the pKi entry on Histamine H1 receptor and on Histamine H4 receptor [1] was “inactive” each time.

For the compound `CN1CCN(c2nc(NCc3ccccc3)c3c(n2)-c2ccccc2CC3)CC1`, the Ki at Histamine H1 receptor is 0.891 µM; at Histamine H4 receptor [1], 14.5 µM.

`COc1ccc(CNc2nc(N3CCN(C)CC3)nc3c2CCc2ccccc2-3)cc1-c1ccc(Cl)cc1`: the figures for the Ki on Histamine H1 receptor and at Histamine H4 receptor [1] were 6.31 µM and 19.5 µM, respectively.

Consider `COc1ccc(CNc2nc(-c3ccccc3)cc(N3CCN(C)CC3)n2)cc1`, for which the values for the Ki on Histamine H1 receptor and at Histamine H4 receptor [1] were 5.25 µM and 1.74 µM, respectively.

In the case of `CN1CCN(c2nc(NCc3ccccc3)cc(-c3ccccc3)n2)CC1`, the Ki at Histamine H1 receptor is 2.51 µM; at Histamine H4 receptor [1], 31.6 µM.

Take `CN1CCN(c2nc(NCc3ccc(F)cc3)nc3c2CCc2ccccc2-3)CC1`: the figures for the Ki on Histamine H1 receptor and at Histamine H4 receptor [1] were 1.95 µM and 11 µM, respectively.

In the case of `CN1CCN(c2nc(NCCc3ccccc3)c3c(n2)-c2ccccc2CC3)CC1`, the figures for the inhibitory constant (Ki) at Histamine H1 receptor and at Histamine H4 receptor [1] were 8.13 µM and 15.1 µM, respectively.

Regarding `CN1CCN(c2nc(NCc3ccccc3)nc3c2CCc2ccccc2-3)CC1`, the Ki at Histamine H3 receptor was 6.03 µM; on Histamine H1 receptor it was 2.09 µM; on Histamine H4 receptor [1], 1.58 µM; at Histamine H2 receptor it was 6.92 µM. At Histamine H4 receptor [2], the EC50 is 0.933 µM. Moreover, the Ratio on Histamine H4 receptor [3] is -1.01.

As usually defined, the Ki is the equilibrium dissociation constant of an inhibitor or competing ligand from its target. High values mean lower affinity, low ones higher affinity. What is called EC50 is the concentration at which the effect is half-maximal.
